Data as given in US7999064B2 (Abbott Medical Optics Inc., priority 2009, dated 2011).

System: L929 cells
Type: cell-based
Method: A direct overlay method which has been adopted by the FDA for MPS registration was used to evaluate the cytotoxicity profile of the PQ1 formulations. In this method, previously-soaked contact lenses (in 100 ml of the solutions to simulate overnight soak) were directly overlayed on L929 cells. The cytotoxicity result was evaluated by scoring each culture under a microscope on a relative scale of 0-4.

Polyquaternium-1 [30K PQ1] showed a cytotoxicity score of 2.
